Laboratory results from patent publication US20210261561A1, “BICYCLIC HETEROCYCLE DERIVATIVES HAVING SELECTIVE BACE1 INHIBITORY ACTIVITY” (SHIONOGI & CO., LTD., priority 2018, published 2021).

Legend:
BACE1 [1] = biological target: T1, BACE1 (Homo sapiens, UniProt P56817); assay: BACE1 biochemical FRET based assay - Method 1 (Test Example 2-2); conditions: 0.04 μg/mL BACE1, 450 minutes, Citrate buffer pH 5.0, read-out: BACE1 Biochemical FRET based assay - Method 1 PIC50 (converted)
From the text: (§1) This assay is a Fluorescence Resonance Energy Transfer Assay (FRET) based assay. The substrate for this assay is an APP derived 13 amino acids peptide that contains the ‘Swedish’ Lys-Met/Asn-Leu mutation of the amyloid precursor protein (APP) beta-site secretase cleavage site. This substrate also contains two fluorophores: (7-methoxycoumarin-4-yl) acetic acid (Mca) is a fluorescent donor with excitation wavelength at 320 nm and emission at 405 nm and 2,4-dinitrophenol (Dnp) is a proprietary quencher acceptor. […] Upon cleavage by BACE1, the fluorophore Mca is separated from the quenching group Dnp, restoring the full fluorescence yield of the donor. The increase in fluorescence is linearly related to the rate of proteolysis.
Briefly in a 384-well format recombinant BACE1 protein in a final concentration of 0.04 μg/mL is incubated for 450 minutes at room temperature with […] substrate in incubation buffer (final concentrations: 33.3 mM Citrate buffer pH 5.0, 0.033% PEG, 3% DMSO) in the absence or presence of compound. Next the amount of proteolysis is directly measured by fluorescence measurement at T=0′-120′ and T=450′ (excitation at 320 nm and emission at 405 nm). Results are expressed in RFU (Relative Fluorescence Units), as difference between T450 and Tx (Tx is chosen depending on the reaction speed between 0 and 120 minutes.).
(§2) Data are analysed using Screener (Registered trademark) (Genedata, Switzerland). Data were normalized and % inhibition=100−[(sample−LC)/(HC−LC))*100], was plotted versus the log concentration of the test compound. Curves were analysed using non-linear regression analysis and IC50 values (inhibitory concentration causing 50% inhibition of activity) were derived from individual curves.
(§3) LC=Median of the low control values
(§4) =Low control: Reaction without enzyme
(§5) HC=Median of the High control values
(§6) =High Control: Reaction with enzyme
(§7) % Inhibition=100−[(sample−LC)/(HC−LC)*100]

BACE2 = biological target: T2, BACE2 (Homo sapiens, UniProt Q9Y5Z0); assay: BACE2 biochemical FRET based assay (Test Example 2-4); conditions: recombinant BACE2 0.4 μg/mL, 10 μM substrate, 450 minutes, pH 5.0; read-out: BACE2 Biochemical FRET based assay pIC50 (converted)
T2 sequence (Q9Y5Z0 63-518): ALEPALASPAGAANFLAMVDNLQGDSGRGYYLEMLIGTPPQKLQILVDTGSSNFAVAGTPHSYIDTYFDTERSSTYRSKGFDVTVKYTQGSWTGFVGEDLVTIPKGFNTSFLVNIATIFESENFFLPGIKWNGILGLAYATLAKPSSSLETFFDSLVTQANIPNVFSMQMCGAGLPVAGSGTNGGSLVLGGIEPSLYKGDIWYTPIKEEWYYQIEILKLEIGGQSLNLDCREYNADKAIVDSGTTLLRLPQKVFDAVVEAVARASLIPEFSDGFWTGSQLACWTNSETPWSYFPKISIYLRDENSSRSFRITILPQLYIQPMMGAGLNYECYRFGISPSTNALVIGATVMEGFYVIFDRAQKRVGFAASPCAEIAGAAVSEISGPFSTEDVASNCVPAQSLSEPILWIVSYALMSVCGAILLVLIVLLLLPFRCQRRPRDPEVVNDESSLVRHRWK
From the text: as §1, with “assay” for “assay is an APP derived 13 amino acids peptide that”, “beta-secretase” for “beta-site secretase”, “the beta-secretase,” for “BACE1,”
Briefly in a 384-well format recombinant BACE2 protein in a final concentration of 0.4 μg/mL is incubated for 450 minutes at room temperature with 10 μM substrate in incubation buffer (final concentrations: 33.3 mM Citrate buffer pH 5.0, 0.033% PEG, 2% DMSO) in the absence or presence of compound. Next the amount of proteolysis is directly measured by fluorescence measurement at T=0 and T=450 (excitation at 320 nm and emission at 405 nm). Results are expressed in RFU (Relative Fluorescence Units), as difference between T450 and TO.
as §2, §3, §4, §5, §6, §7

[2] = test system: Abeta 1-37, Abeta 1-38, Abeta 1-40 and Abeta 1-42 in cerebrospinal fluid (CSF); assay: Pharmacology in the beagle dog, beta-amyloid profile in CSF (Test Example 18-2); format: in vivo; conditions: single dose 0.63 mg/kg
Description: Test compounds were tested to evaluate the effect on the beta-amyloid profile in cerebrospinal fluid (CSF) of dogs after a single dose, in combination with pharmacokinetic (PK) follow up and limited safety evaluation.
For each of compound II-6 or II-10, four beagle dogs (2 males, 2 females) were dosed with vehicle (1 mL/kg of an aqueous solution of 20% cyclodextrin) and 12 beagle dogs (2 males and 2 females per dosage group) were dosed with test compounds as follows:
In the case of compounds II-2, II-3 and II-18, two beagle dogs (1 male, 1 female) were dosed with vehicle (1 mL/kg of an aqueous solution of 20% cyclodextrin) and 4 beagle dogs (2 males and 2 females) were dosed with test compound (II-2, II-3, or II-18) at the doses indicated in the following Table in an aqueous 20% cyclodextrin solution with a concentration in mg/mL identical to the dose given in mg/kg) on an empty stomach.
CSF was taken in conscious animals directly from the lateral ventricle via a cannula which was screwed in the skull and covered with subcutaneous tissue and skin, before and at 4, 8, 25 and 49 hours after dosing. Eight hours after dosing the animals got access to their regular meal for 30 minutes. Blood was taken for PK follow up (0.5, 1, 2, 4, 8, 25 and 49 hours) and serum samples for biochemistry were taken before and at 8 and 25 h after dosing. The CSF samples were used for measurement of Abeta 1-37, Abeta 1-38, Abeta 1-40 and Abeta 1-42.

BACE1 [3] = biological target: T1, BACE1; assay: BACE1 cellular αLisa assay in SKNBE2 cells, Abeta 1-42 (Test Example 2-3); format: cell-based; parameters: endogenous in cells; host or cells: SKNBE2 human neuroblastoma cells expressing hAPP695; conditions: SKNBE2 cells expressing hAPP695, 18 hours incubation, read-out: Cellular αLisa assay in SKNBE2 cells Abeta 42 pIC50 (converted)
Description: In two αLisa assays the levels of Abeta 1-42 or Abeta total produced and secreted into the medium of human neuroblastoma SKNBE2 cells are quantified. The assays are based on the human neuroblastoma SKNBE2 expressing the wild type Amyloid Precursor Protein (hAPP695). The compounds are diluted and added to these cells, incubated for 18 hours and then measurements of Abeta 1-42 or Abeta total are taken. Abeta 1-42 or Abeta total are measured by sandwich αLisa using biotinylated antibody AbN/25 attached to streptavidin coated donor beads and antibody cAb42/26 or Ab 4G8 conjugated acceptor beads for the detection of Abeta 1-42 or Abeta total respectively. In the presence of Abeta 1-42 or Abeta total, the beads come into close proximity. The excitation of the donor beads provokes the release of singlet oxygen molecules that trigger a cascade of energy transfer in the acceptor beads, resulting in light emission. Light emission is measured after 1 h incubation (excitation at […] and emission at 615 nm).
as §2
LC=Median of the low control values • =Low control: Reaction without enzyme
HC=Median of the High control values • =High Control: Reaction with enzyme
as §7

T1 sequence (P56817 46-501): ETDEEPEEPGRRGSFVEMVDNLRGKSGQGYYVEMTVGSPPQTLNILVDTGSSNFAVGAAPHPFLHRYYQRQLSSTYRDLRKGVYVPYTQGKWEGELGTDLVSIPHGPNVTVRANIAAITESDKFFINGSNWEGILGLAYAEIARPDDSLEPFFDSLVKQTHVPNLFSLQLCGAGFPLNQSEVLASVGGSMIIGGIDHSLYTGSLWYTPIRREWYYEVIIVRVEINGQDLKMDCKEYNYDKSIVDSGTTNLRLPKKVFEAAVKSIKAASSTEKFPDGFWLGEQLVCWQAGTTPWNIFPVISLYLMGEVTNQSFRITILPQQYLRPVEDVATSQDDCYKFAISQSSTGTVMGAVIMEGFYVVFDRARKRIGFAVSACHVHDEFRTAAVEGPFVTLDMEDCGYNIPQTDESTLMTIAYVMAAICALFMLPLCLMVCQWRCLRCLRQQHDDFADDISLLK

In the case of `CC1(S(C)(=O)=O)CCC(CF)(c2cc(NC(=O)c3cc4c(cn3)OC(F)(F)O4)cc(F)c2F)N=C1N` (stereo not drawn) [II-18], the IC50 (BACE1 [1]) is reported as 3.24 nM, the IC50 (BACE2) is reported as 240 nM and the “% Decrease in Abeta 1-42 at 8 h post dosing compared to own baseline” value ([2]; 8 h) is reported as 53%. The “% Decrease in Abeta 1-42 at 24 h^(a) or 25 h^(b) post dosing compared to own baseline” value ([2]; 24 h or 25 h) was 27%, the melting point was 195 °C and the IC50 (BACE1 [3]) was 4.47 nM.
